The text below walks through data of ChEMBL document CHEMBL3988442, “University of Dundee, Small-Polar-MMV Screening Library” (2021).

The structures appear in SMILES notation.

For this assay, the target named is ClpP1P2 (Mycobacterium tuberculosis (strain ATCC 25618 / H37Rv), UniProt P9WPC3+P9WPC5). The assay is described as follows: in vitro assay to detect presence of AMC directly proportional to the activity of ClpP1P2. GHDDI collaboration. The format is functional.
ClpP1P2, sequence (P9WPC5 whole entry): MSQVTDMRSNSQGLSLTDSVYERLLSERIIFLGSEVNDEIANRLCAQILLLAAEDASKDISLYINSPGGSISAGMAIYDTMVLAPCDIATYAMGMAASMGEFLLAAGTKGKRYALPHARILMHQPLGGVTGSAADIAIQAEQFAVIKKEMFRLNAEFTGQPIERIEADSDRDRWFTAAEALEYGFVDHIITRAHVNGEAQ
ClpP1P2, sequence (P9WPC3 whole entry): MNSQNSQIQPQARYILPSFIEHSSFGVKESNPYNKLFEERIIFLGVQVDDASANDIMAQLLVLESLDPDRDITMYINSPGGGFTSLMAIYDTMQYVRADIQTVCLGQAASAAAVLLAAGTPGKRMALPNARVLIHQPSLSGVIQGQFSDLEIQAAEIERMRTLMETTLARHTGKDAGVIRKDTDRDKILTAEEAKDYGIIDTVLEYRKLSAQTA
What is called IC50 is the concentration needed to halve the response being measured. Consider `CCn1cnnc1CNC(=O)N1CCN(Cc2ccco2)CC1`, for which the IC50 was more than 100 µM.
The value for `CCC(CNC(=O)Nc1cnn(CC)c1)N1CCc2ccccc2C1` (stereo unspecified) was more than 100 µM; that for `CCC(C)NC(=O)c1ccc(-c2ccco2)[nH]c1=O` (stereo unspecified) was more than 100 µM.
As for `O=C(c1cc(-c2ccco2)nc2c(Cl)cccc12)N1CC[C@H]2CNC[C@H]21`, the IC50 is more than 100 µM.
With `COC(=O)c1cc(OC)ccc1NCC(=O)NCC(=O)N1CCCC1`, the IC50 was more than 100 µM.
For the molecule `Cc1csc2ncc(-c3ccnc(N4CCCC[C@@H]4CO)n3)c(=O)n12`, the IC50 was more than 100 µM.
As for `CCOCC1CN(c2ccncn2)Cc2cnn(CC)c21` (stereo unspecified), the IC50 is more than 100 µM.
As to `COc1ccc(S(N)(=O)=O)cc1C(=O)N(C)Cc1cc(C)on1`, the IC50 was more than 100 µM.
The value for `Cc1sc2ncc(-c3ccnc(NC4CCN(C)CC4)n3)c(=O)n2c1C` was more than 100 µM.
On to `CCOC(=O)Cn1nnnc1-c1ccccc1`, for which the IC50 was more than 100 µM.
As for `Cc1nc(C(=O)N2CCC(c3cc(CCO)n(C)n3)C2)co1` (stereo unspecified), the IC50 is more than 100 µM.
With `CN1CCN(c2ncnc3c2c(C(=O)NC2CC2)c2ccccn23)CC1`, the IC50 was more than 100 µM.
With `Cc1noc2ncc(C(=O)NCC3CCS(=O)(=O)C3)cc12` (stereo unspecified), the IC50 is more than 100 µM.
Take `Cc1nc(C)n(CC2CCCN(CC(=O)N3CCCC3)C2)n1` (stereo unspecified): the IC50 was more than 100 µM.
For `Cc1cnn(CC2CCCN2C(=O)CCc2ccncc2)c1` (stereo unspecified), the IC50 is more than 100 µM.
Regarding `Cc1ccc(CNC(=O)NC(C)Cn2cccn2)cn1` (stereo unspecified), the concentration for half-maximal inhibition (IC50) was more than 100 µM.
Turning to `CCc1ccc(S(=O)(=O)N2CCCC3(CCCN3S(C)(=O)=O)C2)cc1` (stereo unspecified), the IC50 is more than 100 µM.
For `CC(O)c1cn(CC2CCN(C(=O)c3cscn3)CC2)nn1` (stereo unspecified), the IC50 was 84.4 µM.
Take `COCc1nc(C(=O)N2CCCC(n3nc(C)cc3C)C2)cs1` (stereo unspecified): the IC50 was more than 100 µM.
The value for `Cc1nc(NC(=O)CN2C(=O)c3ccccc3NC2C(C)C)sc1C` (stereo unspecified) was more than 100 µM; that for `Cc1cc(C)n(CCNc2ncnc3c2NC(=O)CN3)n1` was more than 100 µM.
As for `CCN(CC)C(=O)CN1CCCC1c1nc(C)c2c(n1)N(C)C(=O)CC2` (stereo unspecified), the IC50 was more than 100 µM.
As for `N#Cc1cc2cc(Cl)cnc2nc1O`, the IC50 was more than 100 µM.
The value for `CNc1cncc(C2CCN(C(=O)c3coc(C)n3)CC2)n1` was more than 100 µM.
On to `N#Cc1cccc(N2CCCC3(CCC(=O)N(C4CCCC4)C3)C2)n1` (stereo unspecified), for which the IC50 was more than 100 µM.
The value for `COc1ccc(-c2ccnc3nc(N4CCCC4)[nH]c(=O)c23)cc1OC` was more than 100 µM.
The value for `OCCNc1nc(Nc2ccccc2)c2nccnc2n1` was more than 100 µM; that for `Cc1n[nH]c(=O)c2c(NC(=O)CN3CCCC(C(F)(F)F)C3)oc(C)c12` (stereo unspecified) was more than 100 µM.
`Cc1cc(C)n(-c2cncc(NCCNC(=O)C3CCCC3)n2)n1`: the IC50 is more than 100 µM.
The result for `CN(C)S(=O)(=O)N1CCC(c2n[nH]cc2-c2ccnc(N)c2)C1` (stereo unspecified) reads more than 100 µM; that for `Cc1csc2ncc(-c3ccnc(N4CCN(C)CC4)n3)c(=O)n12`, more than 100 µM.
As for `CNC(=O)c1cc2c(nc1NCC1CC1)CCN(CC1CC1)CC2`, the 50% inhibitory concentration (IC50) is more than 100 µM.
For the molecule `N#Cc1ccccc1N1CCCN(C(=O)CCc2ccsc2)CC1`, the IC50 is more than 100 µM.
In the case of `CNC(=O)c1cc2c(nc1NCC(C)C)CCN(CCOC)CC2`, the IC50 is more than 100 µM.
With `CN(C)C(=O)CN1CCC2(CC1)CC(=O)c1ccc3ccccc3c1O2`, the IC50 was more than 100 µM.
Take `CCc1n[nH]c(C2CN(CCCS(C)(=O)=O)CCO2)n1` (stereo unspecified): the IC50 was more than 100 µM.
Take `CCOc1cc(/C=C/c2ncc(C(=O)O)s2)cc(Br)c1OC`: the IC50 is more than 100 µM.
The value for `O=C(NCC1CC1)c1c2c(N3CCCC3)ncnc2n2ccccc12` was more than 100 µM; that for `CC(C)c1nnc2n1CCN(Cc1csc(CC(=O)N(C)C)n1)C2` was more than 100 µM; that for `CCN(CC)c1ccc(NS(=O)(=O)c2cnn(CC)c2)cn1` was more than 100 µM.
The result for `CN(Cc1cccc(C(N)=O)c1)CC1CCCN1c1cccnn1` (stereo unspecified) reads more than 100 µM.
`Cc1ccc(NC2CCN(C(=O)CCc3ccncc3)CC2)nn1`: the IC50 was more than 100 µM.
Turning to `O=C(c1c2c(N3CCCC3)ncnc2n2ccccc12)N1CCOCC1`, the IC50 is more than 100 µM.
On to `CN1CCN(c2nc(O)c3c(-c4ccccn4)ccnc3n2)CC1`, for which the IC50 is more than 100 µM.
The value for `Cc1cc2nc(-c3ccccc3)cc(NCC3CCS(=O)(=O)C3)n2n1` (stereo unspecified) was more than 100 µM; that for `Cc1cccc(NC(=O)c2ccc(OCc3nnnn3C)cc2)n1` was more than 100 µM.
Take `CCCc1nc(CNCC2CCCN2c2cccnn2)no1` (stereo unspecified): the IC50 is more than 100 µM.
`COCCNc1ncc(-c2cccc(OC)c2)c(-c2nccn2C)n1`: the half-maximal inhibitory concentration (IC50) is more than 100 µM.
For `CN(C)Cc1cc(C2CCCCN2S(=O)(=O)Cc2ccccc2)nn1C` (stereo unspecified), the half-inhibitory concentration (IC50) is more than 100 µM.
With `COc1ccc(CNC(=O)Nc2cccnc2N2CCCC2)cc1OC`, the IC50 was more than 100 µM.
`CCn1cc(-c2cc(-c3cc(CC(=O)O)cs3)nc(N)c2C#N)c(C)n1`: the IC50 was more than 100 µM.
On to `O=C(c1cncc(N2CCC(O)(CO)CC2)n1)N1CCCC1`, for which the IC50 was more than 100 µM.
In the case of `CC(Cn1cccn1)NC(=O)Cc1csc(C(C)C)n1` (stereo unspecified), the IC50 is more than 100 µM.
For `O=C(NCCCn1cncn1)c1ccc(-c2ccco2)[nH]c1=O`, the 50% inhibitory concentration (IC50) was more than 100 µM.
The value for `O=C1CCc2cc(NC(=O)C3CCCN3c3nccs3)ccc2N1` (stereo unspecified) was more than 100 µM; that for `CNC(=O)c1cnn2c(C3CCCN3)ccnc12` (stereo unspecified) was more than 100 µM; that for `CCc1ncc2c(n1)CN(CC(=O)Nc1cccnc1)CC2` was more than 100 µM.
As for `NC(=O)CCC1CCCN(c2ccc3ccc(F)cc3n2)C1` (stereo unspecified), the IC50 is more than 100 µM.
On to `Cc1nc(C)n(CC2CCCN2CCC(=O)N2CCCCC2)n1` (stereo unspecified), for which the IC50 is more than 100 µM.
The value for `CS(=O)(=O)CCNC(=O)c1ccc(-c2ccco2)[nH]c1=O` was more than 100 µM; that for `Cc1cc(C)n(CCCNc2ncnc3c2NC(=O)CN3)n1` was more than 100 µM.
Regarding `CCOc1ccc2[nH]c(=O)c(CN3CCCC(CO)(CO)C3)cc2c1`, the IC50 is more than 100 µM.
Regarding `COc1cc2nc(NCCNS(C)(=O)=O)cc(C)c2cc1OC`, the IC50 was more than 100 µM.
As to `O=C(O)C1CN(c2cncc(Cc3ccccc3)n2)C1`, the IC50 is more than 100 µM.
With `COc1cccc2ccc(N3CCC(O)(C(=O)O)CC3)nc12`, the IC50 was more than 100 µM.
Turning to `CC(Cc1ccco1)NC(=O)Nc1ccc(N(C)C)nc1` (stereo unspecified), the IC50 was more than 100 µM.
For `CCNc1cc2c(nn1)CCN(C(=O)c1nccnc1N)C2`, the IC50 is more than 100 µM.
In the case of `CC(c1ccncn1)N(C)Cc1cc2cc3c(cc2[nH]c1=O)OCO3` (stereo unspecified), the IC50 is more than 100 µM.
Turning to `CN(C)c1ncc(-c2cc(C(=O)N3CCCC3)n(CC3CC3)c2)cn1`, the IC50 is more than 100 µM.
The value for `CC(C)n1cnc(-c2nc(C(=O)NC3CC3)c3ccccn23)c1` was more than 100 µM.
On to `Cc1cccc2c1C(=O)NC1(CCOCC1)N2`, for which the IC50 is more than 100 µM.
For `O=C(NCCOC1CCCCC1)c1ccc(-c2ccco2)[nH]c1=O`, the IC50 is more than 100 µM.
In the case of `Cc1ccc(-c2cc(-c3c(C)nn(CCO)c3C)c(C#N)c(N)n2)cc1`, the IC50 is more than 100 µM.
On to `CNc1cncc(C2CCN(C(=O)c3cnco3)CC2)n1`, for which the IC50 is more than 100 µM.
Consider `CC(C)Nc1oc(-c2ccc(S(=O)(=O)N(C)C)o2)nc1C#N`, for which the IC50 was more than 100 µM.
As to `COc1ccc(-c2nnc(CNCCn3cc(C)cn3)o2)cc1`, the IC50 is more than 100 µM.
Regarding `Cc1cccc2c1OCCC2NCc1c(C)nn(C)c1N(C)C` (stereo unspecified), the IC50 was more than 100 µM.
With `COCCCN1C(=O)CC[C@H]2CN(c3cnc4ccccc4n3)CC[C@H]21`, the IC50 is more than 100 µM.
The result for `Nc1nccnc1C(=O)NC1CCN(Cc2ccccc2)C1` (stereo unspecified) reads more than 100 µM.
In the case of `CCNc1ccnc(-c2ccnc3c2ccn3C)n1`, the IC50 is more than 100 µM.
`Cn1cc(Cl)cc1C(=O)N1CCCN(Cc2ccccc2)CC1`: the concentration for half-maximal inhibition (IC50) is more than 100 µM.
For the molecule `Cc1cc(-c2cc(-c3cc(CC(=O)O)cs3)nc(N)c2C#N)oc1C`, the IC50 was more than 100 µM.
As for `c1ccc(CN2CCc3ncnc(-c4ccoc4)c3CC2)nc1`, the IC50 is more than 100 µM.
The result for `CCSc1ncc(-c2cc(C3CC3)nc(N)c2C#N)cn1` reads more than 100 µM; that for `Cc1cc(NCC(=O)N(C)Cc2cccs2)c(C(N)=O)cc1F`, more than 100 µM; that for `CC(Cn1ccnc1)NC(=O)NCCc1cccs1` (stereo unspecified), more than 100 µM.
For the molecule `Cc1nc(CN(C)C2CCN(Cc3cccc4c3OCCO4)C2)no1` (stereo unspecified), the IC50 was more than 100 µM.
For `Cc1cc(C)n(CC2CCCN2C(=O)c2ccnc(N(C)C)c2)n1` (stereo unspecified), the IC50 was more than 100 µM.
The value for `Cn1cc(CN2CCCCC2c2ccc(-c3cccc(F)c3)nc2)cn1` (stereo unspecified) was more than 100 µM.
Regarding `Cc1nc(C)n(CC2CN(Cc3cccc4ccccc34)CCO2)n1` (stereo unspecified), the IC50 is more than 100 µM.
For `CCn1nc(NC(=O)Cn2ccc(C(C)=O)n2)c2ccccc21`, the IC50 is more than 100 µM.
The result for `Cc1ccoc1C(=O)NC1CCN(C(=O)Nc2ccccn2)CC1` reads more than 100 µM; that for `CC(C)[C@H](Nc1cc(-c2ccncc2)nc2ccnn12)C(N)=O`, more than 100 µM.
`CC(C)N(CCC#N)C(=O)c1cnc(-c2ccc3c(c2)OCO3)s1`: the IC50 was more than 100 µM.
Consider `O=C1CN(c2cc(-c3ccccc3F)nc3ccnn23)CCCN1`, for which the half-inhibitory concentration (IC50) is more than 100 µM.
As to `Cc1c[nH]nc1C1CCCN1Cc1nccn1C` (stereo unspecified), the IC50 was more than 100 µM.
As for `O=C(NCCC(=O)N1CCCc2ccccc21)c1c(F)cccc1F`, the IC50 is more than 100 µM.
In the case of `Cc1nc(CN(C)C2CCN(Cc3nc4ccccc4n3C)C2)no1` (stereo unspecified), the IC50 is more than 100 µM.
Regarding `O[C@@H]1C[C@H]2CN(Cc3ccccc3Cl)[C@H](Cc3ccccc3)CN2C1`, the IC50 is more than 100 µM.
As for `Cc1nc2ccccc2nc1NCc1cccc(OCC2CCCO2)c1` (stereo unspecified), the IC50 was more than 100 µM.
Regarding `COc1cccc2ccc(N3CCC(O)(c4ccc(C)cn4)CC3)nc12`, the IC50 is more than 100 µM.
On to `Cc1noc(C2CCN(C(=O)CCc3nccs3)CC2)n1`, for which the IC50 was more than 100 µM.
As for `Cn1cc(CN2CCCN(C(=O)c3cn4ccccc4n3)CC2)cn1`, the IC50 is more than 100 µM.
`CCn1c(C)nnc1CN(C)C1CCN(CCS(=O)(=O)CC)C1` (stereo unspecified): the IC50 is more than 100 µM.
As to `O=C(O)C1CN(c2cncc(Cc3ccccc3F)n2)C1`, the IC50 is more than 100 µM.
For `COc1ccccc1-c1nc(C(=O)N(C)C)n2ccncc12`, the IC50 is more than 100 µM.
